From patent US6875788B2, “Imidazoline compounds” (Les Laboratoires Servier, priority 2002, dated 2005) come the findings set out here.

The target in one test is T1, serotonin reuptake sites (Rattus norvegicus, UniProt P31652).
T1 construct: The membranes from the rat frontal cortex are prepared and incubated in triplicate; from tissue; host or cells: rat frontal cortex membranes
The test can be described thus: Affinity for serotonin reuptake sites, competition with [3H]-paroxetine on rat frontal cortex membranes. To be noted: 0.25 nM [3H]-paroxetine, 2 hours, 25° C. The class given is binding. The protocol: The affinity of the compounds of the invention was determined by competition experiments with [^3H]-paroxetine. The membranes from the rat frontal cortex are prepared and incubated in triplicate for 2 hours, at 25° C., with 0.25 nM [^3H]-paroxetine and the cold ligand in a final volume of 0.4 ml. The incubation buffer contains 50 mM TRIS-HCl (pH 7.4), 120 mM NaCl and 5 mM KCl. The non-specific binding is determined using 10 μM citalopram. At the end of incubation, the medium is filtered through filters and washed three times with 5 ml of cooled buffer. The radioactivity retained on the filters is determined by liquid scintillation counting. The binding isotherms are analysed by non-linear regression in order to determine the IC50 values.

A further test deals with obese ob/ob mouse. The test can be described thus: Hypolipaemic activity in the obese ob/ob mouse. The class given is in vivo. Particulars: oral route 30 mg/kg/day for 4 days, treated vs. untreated animals. The protocol: The products of the invention were tested in vivo in the obese ob/ob mouse, used as a model of obesity-associated insulin resistance. […] In this model, the compounds of the invention are thus shown also to be powerful hypolipaemics.

The subject of a further test is Zucker rats. In words: Oral glucose tolerance test (OGTT), hypoglycaemic activity in Zucker fatty fa/fa rats. The format is in vivo, rat. Particulars: 10 mg/kg per os 1 hour before OGTT (glucose 2 g/kg per os). The protocol:
Finally, the hypoglycaemic activity was evaluated in “Zucker” rats. “Zucker fatty” fa/fa rats arose following a spontaneous mutation of the 13M strain (Zucker & Zucker, 1961), and are genetically insulin-resistant and obese.
Their obesity can be observed from the age of four weeks, and is thus accompanied by insulin resistance, hyperinsulinaemia and hyperlipidaemia. […] Homeostasis was evaluated likewise by a glucose tolerance test.
(§1) Oral Glucose Tolerance Test (OGTT)
(§2) Glucose is administered per os (2 g/kg) to conscious rats. Blood samples are collected before and 10, 20, 30, 40, 60, 90 and 120 minutes after the glucose administration.
(§3) The product to be tested is administered per os 1 hour before the OGTT, and the control animals receive solvent (gum arabic).

Another test relates to non-diabetic Wistar rats. The test can be described thus: Oral glucose tolerance test (OGTT), hypoglycaemic activity in non-diabetic Wistar rats. The class given is in vivo, rat. To be noted: 10 mg/kg per os 1 hour before OGTT (glucose 2 g/kg per os).
Another test relates to STZ Wistar rats. In words: Oral glucose tolerance test (OGTT), hypoglycaemic activity in STZ (streptozotocin) Wistar rats. The class given is in vivo, rat. To be noted: 10 mg/kg per os 1 hour before OGTT (glucose 2 g/kg per os). The protocol: The hypoglycaemic activity of the compounds of the invention was examined in three-month-old male Wistar rats weighing about 250 g. An experimental diabetes is obtained by the iv injection, under ketamine hydrochloride anaesthesia, of a low dose of streptozotocin (35 mg/kg iv) dissolved in a citrate buffer. Such rats are called STZ rats and are characterised by a slight basal hyperglycaemia, a marked intolerance to glucose and a clear change in the secretion of insulin.
Homeostasis was evaluated by a glucose tolerance test, carried out two weeks after injection with streptozotocin.
as §1, §2, §3

T1 sequence (P31652 whole entry): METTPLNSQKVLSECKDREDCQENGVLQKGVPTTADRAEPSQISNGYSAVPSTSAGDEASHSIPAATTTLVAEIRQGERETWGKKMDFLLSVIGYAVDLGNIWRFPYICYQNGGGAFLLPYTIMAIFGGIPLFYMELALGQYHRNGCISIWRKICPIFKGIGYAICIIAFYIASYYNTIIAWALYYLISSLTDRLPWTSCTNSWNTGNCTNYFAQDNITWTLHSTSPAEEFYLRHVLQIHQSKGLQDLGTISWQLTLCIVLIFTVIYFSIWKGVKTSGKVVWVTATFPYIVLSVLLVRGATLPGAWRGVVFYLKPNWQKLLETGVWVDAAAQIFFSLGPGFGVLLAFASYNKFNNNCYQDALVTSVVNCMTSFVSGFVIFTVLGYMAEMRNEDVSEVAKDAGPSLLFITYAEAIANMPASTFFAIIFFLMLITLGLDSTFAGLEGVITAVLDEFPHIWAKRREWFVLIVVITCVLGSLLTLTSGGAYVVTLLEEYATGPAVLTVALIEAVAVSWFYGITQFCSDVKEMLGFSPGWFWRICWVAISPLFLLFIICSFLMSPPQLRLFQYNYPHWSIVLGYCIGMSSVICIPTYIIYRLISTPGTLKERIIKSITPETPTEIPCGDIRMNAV

The IC50 is the point on the concentration scale where inhibition reaches its midpoint. The low end stands for greater potency in that assay, the high end for weaker potency in that assay. With `c1ccc(C(C2=NCCN2)C2CCCCC2)cc1` (stereo not drawn) [2-[cyclohexyl(phenyl)methyl]-4,5-dihydro-1H-imidazole, reference compound], on serotonin reuptake sites, the IC50 was determined as 150 nM.
The same measure, in the same setting: the same measure for `c1cc(C(C2=NCCN2)C2CCCCC2)cs1` (stereo not drawn) [Example 3, 2-[Cyclohexyl(3-thienyl)methyl]-4,5-dihydro-1H-imidazole]: 2000 nM.
`CC1CNC(C(c2ccsc2)C2CCCCC2)=N1` (stereo not drawn) [Example 6, 2-[Cyclohexyl(3-thienyl)methyl]-4-methyl-4,5dihydro-1H-imidazole] came in with a lowers the triglycerides with obese ob/ob mouse of 32%. Further, the reduces glycaemia in the test with Zucker rats was determined as 14%; with non-diabetic Wistar rats, 13%; in the test on STZ Wistar rats it was 18%.
